One data set deals with GL-261 glioma. In words: Survival in syngeneic mouse GL-261 orthotopic glioma model. It is filed as in vivo, C57BL/6 mice. Particulars: temozolomide 300 mg/m^2 qdx5, anti-PD-1 15 mg/m^2 q4dx5. As for the experimental part: At 5 days prior to treatment initiation, female C57BL/6 (C57BL/6NHsd) mice 6–7 weeks old (Envigo; Indianapolis, IN) were inoculated intracranially with 3 µL of GL-261 murine glioblastoma tumor cells at 1 × 10^5 cells/mouse. Implant coordinates were 1 mm anterior and 2 mm lateral to the bregma, at a depth of 3 mm. Buprenorphine (Reckitt Benckiser Healthcare; UK) was administered to the mice approximately 30 min prior to surgery. After 5 days, mice were randomized into one of the treatment groups. For those mice administered Ad-RTS-mIL-12, the vector was administered through the same bur hole at the coordinates above in a constant volume of 3–5 μL. Veledimex was administered via oral gavage once daily for 14 consecutive days.
(§1) All values are expressed as the mean ± standard error of the mean. Statistical analysis was performed using a one-way analysis of variance with Dunnets post hoc test to compare differences between the groups versus control. Increased survival fractions were studied using Kaplan–Meier survival plot followed with a log-rank and Gehan–Wilcoxon tests to assess the significance of the differences. All statistical analyses were performed using GraphPrism 5 (GraphPad Software, Inc., CA, USA). Differences between groups were considered significant when P < 0.05. Pharmacokinetics and tissue levels of veledimex was determined using non-compartmental analysis module of the pharmacokinetic software Phoenix 64 WinNonlin.
In this model, each C57BL/6 mouse received 1 × 10^5 GL-261 glioma cells via intracranial injection ~2 mm distal to the intersection of the coronal and sagittal suture. On day 5, the animals were randomly assigned to one of the treatment groups. Animals were monitored for survival.
1 × 10^5 GL-261 glioma cells were administered into the brain. Separate groups of 12 C57BL/6 mice each were randomly assigned to one of the treatment groups. On day 1 animals were administered 1 × 10^5 GL-261 glioma cells intracranially. On day 5, Ad-RTS-mIL-12 at 5 × 10^9 vp+veledimex PO at 1–30 mg/m^2/day PO was administered for 14 consecutive days and the time to disease progression and death was studied. […] All values are expressed as the mean for >12 animals per group.

Data set [1] in a line: Plasma and CSF pharmacokinetics of veledimex in cynomolgus monkey. It is filed as in vivo. To be noted: cynomolgus monkeys. As for the experimental part:
(§2) Brain tumor, plasma and cerebrospinal fluid (CSF) samples were analyzed for veledimex using liquid chromatography/tandem mass spectrometry method. Brain tumor samples were homogenized in homogenization solution (10:90/v:v/acetonitrile:0.1% Tween 80 in water) with ratio of 1 g to 9 mL and proteins precipitated. Veledimex concentrations were calculated with a Quadratic 1/x concentration weighting linear regression over concentration ranges of 0.0500 to 50 ng/mL using deuterated (D3) veledimex as an internal standard.
as §1
A single oral dose of veledimex at 120 mg was administered to six cynomolgus monkeys (3/gender) and plasma and CSF levels were assessed through 48 h post treatment. Since no gender-related differences were observed, the data from male and female animals were pooled.

Data set [2] can be described thus: Brain veledimex level in in vivo mechanistic study (increasing vector dose, fixed veledimex dose). The arrangement: species or system C57BL/6 mice. Particulars: mean ± SEM. As for the experimental part:
as §2
In this study mice were administered Ad-RTS-mIL-12 1 × 10^8 to 5 × 10^9 vp intracranial at the coordinates stated above with veledimex administered gavage at a fixed dose of 100 mg/m^2/day PO, and brain veledimex, viral copy number and the ability to turn on the switch to elicit local production of IL-12 mRNA and IL-12 protein expressions were assessed. […] The 5 × 10^9 vp dose was chosen for all subsequent studies.

Data set [3] can be described thus: Plasma, CSF and brain pharmacokinetics of veledimex in mouse. It is filed as in vivo, C57BL/6 mice. As for the experimental part: as §2, §1
Veledimex was administered to separate groups of C57BL/6 mice at a single dose via oral gavage (PO) at 225 mg/m^2. Terminal blood and CSF and brain samples were collected at 1, 2, 4, 6, 24 and 48 h post dose.

[4] abbreviates: C57BL/6 mice, single oral dose 225 mg/m^2, CSF.
[5] abbreviates: C57BL/6 mice, single oral dose 225 mg/m^2, brain.

In the data set on GL-261 glioma (bevacizumab 30 mg/m^2 biwk ×3), `Cn1nnc2c(C(N)=O)ncn2c1=O` [temozolomide] showed a median survival of 33 days. Besides, in the data set on GL-261 glioma (bevacizumab 30 mg/m^2 biwk ×3, day 85), the “animals surviving to terminal killing” value was 14%. The “tumor at terminal killing” value in the data set with GL-261 glioma was “all mice having tumor present”.

For the compound `CCC[C@@H](N(NC(=O)c1cccc(OC)c1CC)C(=O)c1cc(C)cc(C)c1)C(C)(C)C` [veledimex], the “Blood–brain barrier crossing” value in data set [1] (orally administered) is given as “crosses the blood–brain barrier”. In addition, in data set [1] (single oral dose 120 mg), the “AUC0-t ratio between CSF and plasma” value came out at 0.7 ± 0.2; the veledimex brain uptake is ~ 1%. In data set [1] (single oral dose 120 mg, CSF), the “AUC0-t in CSF” value is 42.5 ± 17.4 ng·h/mL and the “Cmax in CSF” value turned out to be 2.07 ± 0.91 ng/mL. This compound also showed an AUC0-t in plasma in data set [1] (single oral dose 120 mg, plasma) of 5887 ± 2203 ng·h/mL. This compound gave a Cmax in plasma in data set [1] (single oral dose 120 mg, plasma, males and females pooled) of 327 ± 142 ng/mL. In data set [1] (single oral dose 120 mg, post dose), the “mean plasma Tmax” value is recorded as ~ 4 h. Besides, the “Brain veledimex Cmax” value in data set [2] (veledimex 100 mg/m^2/day PO + Ad-RTS-mIL-12 1 × 10^8 vp intracranial) amounted to 515 ± 53 ng/g. Further, the “Brain veledimex Cmax” value in data set [2] (veledimex 100 mg/m^2/day PO + Ad-RTS-mIL-12 1 × 10^9 vp intracranial) amounted to 311 ± 99 ng/g. Also, the “Brain veledimex Cmax” value in data set [2] (veledimex 100 mg/m^2/day PO + Ad-RTS-mIL-12 5 × 10^9 vp intracranial) is 378 ± 68 ng/g. Also, in data set [3] (C57BL/6 mice, single oral dose 225 mg/m^2), the “Cmax and AUC0-t ratio between CSF and plasma” value was determined as 0.34%. Besides, in data set [3] (setting [4]), the “CSF AUC0-t” value turned out to be 466 ng·h/mL and the “CSF Cmax” value is reported as 14 ng/mL. Also, in data set [3] (setting [5]), the “AUC0-t in the brain” value amounted to 25325 ng·h/mL and the “Cmax in the brain” value amounted to 1794 ng/mL. The compound also displayed a Cmax in plasma in data set [3] (C57BL/6 mice, single oral dose 225 mg/m^2, plasma) of 4153 ng/mL. The “Blood–brain barrier crossing” value in data set [3] (mice, orally administered) is listed as “crosses the blood–brain barrier”.

Bevacizumab showed a median survival with GL-261 glioma (bevacizumab 30 mg/m^2 biwk ×3) of 20 days.
